Patent EP4781990A1, “PHARMACEUTICAL COMPOSITION CONTAINING HETEROARYL OXYNAPHTHALENE COMPOUND, PREPARATION METHOD THEREFOR, AND USE THEREOF” (Shanghai Runshi Medical Technology Co., Ltd, priority 2023, dated 2025)

Columns and labels:
Type in all cases: physicochemical
[1] = Water sorption and desorption experiment (DVS, hygroscopicity); conditions: 40-80% relative humidity, 25 °C
Description: In the following examples, the related analysis and detection conditions are as follows: 1. X-ray powder diffractometer (XRPD) • Instrument: BRUKER D8 Advance X-ray powder diffractometer, Germany. • Conditions: Cu-Kα radiation (λ = 1.5418 Å), tube voltage: 40 kV, tube current: 40 mA, 2θ scanning range: 3-40°, scanning step size: 0.02° (2θ), scanning speed: 10 s/step, sample tray: a zero background sample tray. • Method: a sample was spread on a zero background monocrystalline silicon sample tray and was gently pressed using a medicine spoon to be flat for measurement. 2. Chloride • Detection instrument: Dionex ICS-900 ion chromatograph • Column: Dionex Ion Pac AS11-HC anion chromatographic column (specification: 4 × 250 mm) • Determination method: 10 µL of each of the control solution and the sample solution was measured precisely and injected into the ion chromatograph, the chromatogram was recorded, and the chloride ion content was calculated based on peak area according to the external standard method. 3. Dynamic vapor sorption/desorption (DVS) analysis Instrument: DVS Intrinsic plus (SMS, UK). Method: a sample was placed in a tared sample basket, the weight of the sample was automatically measured, and the sample was analyzed according to the parameters in the table below.
The samples obtained in Preparation Example 2 and Preparation Example 3 were investigated for moisture sorption and desorption under the relative humidity of 40-80% using a dynamic vapor sorption (DVS) instrument at a temperature of 25 °C to determine the hygroscopicity of various salt forms. Table 6 Hygroscopicity experimental results of different salt forms of compound (I) (DVS, 40-80%)

[2] = Solid stability experiment of compound (A); conditions: for Crystalline form: XRPD
[3] = Grinding stability experiment of compound (A); conditions: XRPD

| Hygroscopicity (%) [1] | Purity/% ([2]; 40 °C/75% RH (open), 7 days) | Crystalline form ([2]; 40 °C/75% RH (open), 7 days) | Purity/% ([2]; 60 °C (sealed), 7 days) | Crystalline form ([2]; 60 °C (sealed), 7 days) | Purity/% ([2]; Initial state, 0 days) | Crystalline form ([2]; Initial state, 0 days) | Crystalline form ([2]; room temperature/92.5% RH (open), 10 days) | Hygroscopicity (in words) [1] | Crystalline form change after grinding with organic solvent ([3]; ground after dropwise addition of methanol, ethanol, acetone, acetonitrile, or ethyl acetate) | Crystalline form change after grinding ([3]; mechanically ground using a mortar for 2 min and 5 min) | Molecule |
| --- | --- | --- | --- | --- | --- | --- | --- | --- | --- | --- | --- |
| 3.75% |  |  |  |  |  |  |  |  |  |  | Phosphate |
| 0.65% | 99.86% | Crystalline form I | 99.85% | Crystalline form I | 99.85% | Crystalline form I | Crystalline form I | slightly hygroscopic | no crystalline form change occurred | no crystalline form change occurred | CNC(=O)c1cccc2cc(Oc3ccnc(NC(=O)c4ccc(N5C[C@@H](C)N[C@@H](C)C5)cc4)c3)ccc12 [Compound (A)] |
| 2.11% |  |  |  |  |  |  |  |  |  |  | Fumarate |
